Test results published in patent publication US20240189385A1, “KEAP1/NRF2 PROTEIN-LIKE POLYMERS” (Northwestern University, priority 2021, published 2024).
Ends that are not written are not given here.

Tested on: Antioxidant Response Element (ARE), Nrf2 antioxidant pathway
Assay: Antioxidant Response Element (ARE) luciferase reporter assay
Assay type: cell-based
Conditions: 0 μM to 50 μM with respect to peptide; 24 hours; FIGS. 38A, 38B
Procedure: The Antioxidant Response Element (ARE) Luciferase Reporter HepG2 Cell line was used to probe Nrf2 antioxidant pathway activation. ARE-HepG2 cells were cultured in growth media (BPS bioscience) according to manufacturer's recommendations. […] PLPs and peptides were tested at concentrations ranging from 0 μM to 50 μM with respect to peptide along with controls (untreated and tBHQ positive control at 100 μM) in triplicate. Cells were incubated for 24 hours post-treatment. ONE-step luciferase assay reagent was added at 100 μL/well, followed by rocking at room temperature for 15 min. Luminescence was assessed using a Biotek SynergyNeo2 plate reader. Background luminescence of cell free controls wells was subtracted from test wells. ARE activation was reported as luminescence relative to the average of the untreated controls wells.

Compound | ARE activation
CC(C)C[C@H](NC(=O)[C@H](Cc1ccccc1)NC(=O)[C@H](CCC(=O)O)NC(=O)CNC(=O)[C@@H](NC(=O)[C@H](CCC(=O)O)NC(=O)[C@@H]1CCCN1C(=O)[C@H](CC(=O)O)NC(=O)[C@@H](N)CC(C)C)[C@@H](C)O)C(=O)N[C@@H](CCCNC(=N)N)C(=O)N[C@@H](CCCNC(=N)N)C(=O)N[C@@H](CCCNC(=N)N)C(=O)N[C@@H](CCCNC(=N)N)C(N)=O [SEQ ID NO: 72] | did not activate ARE
Full Scramble PLP: full scramble polynorbornene dicarboxyimide-based brush polymer comprising SEQ ID NO: 143 (DERLERPLTRGFR) peptide monomer, Example 13 (also: part of polynorbornene dicarboxyimide-based brush polymer) [reference compound] | did not activate ARE
ScrambleR PLP: scrambleRRRR polynorbornene dicarboxyimide-based brush polymer comprising SEQ ID NO: 146 (DELEPLTGFRRRR) peptide monomer, Example 14 (also: part of polynorbornene dicarboxyimide-based brush polymer) [reference compound] | did not activate ARE
